# Measurements from patent publication US7135466B2 (Kirin Beer Kabushiki Kaisha, priority 1999, dated 2006).
# Read-outs that look alike come from different tables or passages of the source.
# What was measured:
# c-kit = molecular target: T1, c-kit (Homo sapiens, UniProt P10721); assay: Inhibitory activity against c-kit autophosphorylation (MO7e cells, h-SCF); format: cell-based; conditions: for IC50: MO7e cells, read-out: c-kit IC50; for inhibition at 1 µM: Mo7e, at 1000 nM
# T1 construct: MO7e (human megakaryocytic leukemia cell line) which had been arrested for 20 hr; endogenous in cells; host or cells: MO7e human megakaryocytic leukemia cell line
# T1 sequence (P10721 26-976): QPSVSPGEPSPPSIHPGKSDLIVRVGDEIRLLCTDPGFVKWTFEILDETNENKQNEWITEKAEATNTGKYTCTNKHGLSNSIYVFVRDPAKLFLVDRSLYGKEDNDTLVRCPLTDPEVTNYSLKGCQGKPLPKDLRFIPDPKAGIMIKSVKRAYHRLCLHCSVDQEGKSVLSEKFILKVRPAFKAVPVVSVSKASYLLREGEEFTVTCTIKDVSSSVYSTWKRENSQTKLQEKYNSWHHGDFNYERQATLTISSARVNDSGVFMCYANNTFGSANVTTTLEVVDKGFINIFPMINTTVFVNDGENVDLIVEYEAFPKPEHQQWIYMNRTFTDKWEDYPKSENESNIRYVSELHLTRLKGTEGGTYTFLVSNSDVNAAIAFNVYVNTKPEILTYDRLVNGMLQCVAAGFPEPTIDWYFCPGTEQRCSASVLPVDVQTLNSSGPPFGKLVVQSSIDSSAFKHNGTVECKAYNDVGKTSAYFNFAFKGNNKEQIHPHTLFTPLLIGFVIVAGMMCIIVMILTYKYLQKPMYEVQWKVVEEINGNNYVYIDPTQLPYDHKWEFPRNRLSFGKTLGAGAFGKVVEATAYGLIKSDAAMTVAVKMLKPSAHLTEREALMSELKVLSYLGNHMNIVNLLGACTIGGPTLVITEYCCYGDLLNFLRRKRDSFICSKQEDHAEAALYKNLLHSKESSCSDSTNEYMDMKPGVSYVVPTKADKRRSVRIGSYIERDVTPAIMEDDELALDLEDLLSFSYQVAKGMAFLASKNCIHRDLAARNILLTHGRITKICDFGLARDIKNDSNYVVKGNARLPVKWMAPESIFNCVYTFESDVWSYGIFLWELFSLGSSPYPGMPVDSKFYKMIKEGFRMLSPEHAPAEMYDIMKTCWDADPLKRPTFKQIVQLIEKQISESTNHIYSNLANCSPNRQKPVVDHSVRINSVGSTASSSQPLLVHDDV
# Procedure, shortened: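 Growth-arrested (20 hr) MO7e; cpd in DMSO, 1 hr; h-SCF 50 ng/ml, 5 min; lyse. ELISA: anti-pTyr (PY-20) capture, anti-c-kit 1° Ab, HRP anti-rabbit 2° Ab, A450.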
# PDGF-Ra = molecular target: T2, PDGF-Ra (Homo sapiens, UniProt P16234); assay: Inhibitory activity against PDGF-Ra phosphorylation by PDGF-AA stimulation using G292; format: cell-based; conditions: for IC50: > means inhibition at indicated concentration not more than 50%, < and << not less than 50%, read-out: PDGF (E) IC50; for inhibition at 0.1 µM: G292, at 100 nM, read-out: PDGF (E) inhibition (%) at 100 nM
# T2 construct: host or cells: G-292 human osteosarcoma cells
# T2 sequence (P16234 24-1089): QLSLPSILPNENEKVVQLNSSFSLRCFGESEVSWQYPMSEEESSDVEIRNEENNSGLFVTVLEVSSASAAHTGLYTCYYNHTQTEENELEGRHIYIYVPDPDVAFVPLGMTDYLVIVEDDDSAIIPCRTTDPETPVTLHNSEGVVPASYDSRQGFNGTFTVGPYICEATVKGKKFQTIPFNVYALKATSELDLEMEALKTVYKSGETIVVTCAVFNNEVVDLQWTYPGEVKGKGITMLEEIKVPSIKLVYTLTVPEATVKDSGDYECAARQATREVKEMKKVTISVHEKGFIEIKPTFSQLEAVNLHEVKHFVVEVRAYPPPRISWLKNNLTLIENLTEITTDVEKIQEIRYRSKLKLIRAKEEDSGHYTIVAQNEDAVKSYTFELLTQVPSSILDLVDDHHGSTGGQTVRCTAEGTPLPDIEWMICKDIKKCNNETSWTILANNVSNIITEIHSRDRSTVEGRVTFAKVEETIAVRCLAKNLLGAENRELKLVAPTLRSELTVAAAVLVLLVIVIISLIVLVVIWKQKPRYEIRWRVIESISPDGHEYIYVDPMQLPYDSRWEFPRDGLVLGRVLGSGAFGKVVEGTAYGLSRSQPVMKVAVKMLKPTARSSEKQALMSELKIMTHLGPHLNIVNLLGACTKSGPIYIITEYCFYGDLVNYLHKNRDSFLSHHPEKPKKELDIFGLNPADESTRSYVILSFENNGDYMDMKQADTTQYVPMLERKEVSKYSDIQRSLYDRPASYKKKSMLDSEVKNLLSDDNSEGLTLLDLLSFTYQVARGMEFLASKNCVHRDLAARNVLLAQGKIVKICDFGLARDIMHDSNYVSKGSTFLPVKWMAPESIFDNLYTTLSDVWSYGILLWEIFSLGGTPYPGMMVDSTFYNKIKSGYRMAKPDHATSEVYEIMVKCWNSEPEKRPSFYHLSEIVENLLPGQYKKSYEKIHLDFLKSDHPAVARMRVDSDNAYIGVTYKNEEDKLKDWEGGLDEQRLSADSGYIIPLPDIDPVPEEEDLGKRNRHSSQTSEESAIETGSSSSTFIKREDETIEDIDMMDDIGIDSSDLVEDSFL
# Procedure, shortened: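 Human osteosarcoma G-292, 0.1% FBS o/n; cpd (DMSO) 1 h 37 °C; PDGF-AA 50 ng/ml 5 min; lyse 20 min RT; PY-20 capture 4 °C o/n; anti-PDGF-Ra + HRP-GAR; OD450.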
# [1] = figure within parentheses in >100( )
# [2] = figure within parentheses in −( ) or >1000( )
Compound,IC50 (c-kit; h-SCF 50 ng/ml) [nM],IC50 (PDGF-Ra; Pharmacological Test Example 1) [nM],IC50 (PDGF-Ra) [nM],further results
"COc1cc2nccc(Oc3ccc(NC(=O)OCCCSc4ccc(C(C)(C)C)cc4)c(C)c3C)c2cc1OC [Example 73, 3-{[4-(Tert-butyl)phenyl]sulfanyl}-propyl N-{4-[(6,7-dimethoxy-4-quinolyl)oxy]-2,3-dimethylphenyl}carbamate]",235,28,–,–
"CCCC(OC(=O)Nc1ccc(Oc2ncnc3cc(OC)c(OC)cc23)cc1)c1ccccc1 (stereo not drawn) [Example 187, 1-Phenylbutyl N-{4-[(6,7-dimethoxy-4-quinazolinyl)oxy]phenyl}carbamate]",561,< 10,–,–
"COc1cc2ncnc(Oc3ccc(OCCCOc4ccccc4OC)cc3)c2cc1OC [Example 810, 6,7-Dimethoxy-4-{4-[3-(2-methoxyphenoxy)propoxy]phenoxy}quinazoline]",–,–,18,IC50 (c-kit; h-SCF stimulation): 269 nM
"COc1cc2nccc(Oc3cc(C)c(NC(=O)OC(C)C)cc3C)c2cc1OC [Example 347, Isopropyl N-{4-[(6,7-dimethoxy-4-quinolyl)oxy]-2,5-dimethylphenyl}carbamate]",228,77,–,–
"CCCC(CCN1CCN(C)CC1)OC(=O)Nc1ccc(Oc2ccnc3cc(OC)c(OC)cc23)c(C)c1C (stereo not drawn) [Example 451, 1-[2-(4-Methylpiperazino)ethyl]butyl N-{4-[(6,7-dimethoxy-4-quinolyl)oxy]-2,3-dimethylphenyl}carbamate]",–,–,> 100,IC50 (c-kit; 50 ng/ml h-SCF): 613 nM; inhibition at 0.1 µM (PDGF-Ra; [1]): 25%
"COc1cc2nccc(Oc3cc(C)c(NC(=O)OC(C)c4cccc(Cl)c4)cc3C)c2cc1OC (stereo not drawn) [Example 5, 1-(3-Chlorophenyl)ethyl N-{4-[(6,7-dimethoxy-4-quinolyl)oxy]-2,5-dimethylphenyl}carbamate]",336,24,–,–
"COc1cc2nccc(Oc3cc(C)c(NC(=S)NCCN4CCCC4)cc3C)c2cc1OC [Example 541, N-{4-[(6,7-Dimethoxy-4-quinolyl)oxy]-2,5-dimethylphenyl}-N′-[2-(1-pyrrolidinyl)ethyl]thiourea]",–,–,70,IC50 (c-kit; 50 ng/ml h-SCF): 794 nM
"COc1cc2nccc(Oc3ccc(NC(=O)NCCN(C(C)C)C(C)C)c(C)c3C)c2cc1OC [Example 655, N-[2-(Diisopropylamino)ethyl]-N′-{4-[(6,7-dimethoxy-4-quinolyl)oxy]-2,3-dimethylphenyl}urea]",–,–,43,inhibition at 1 µM (c-kit; [2]): 43%
"COc1cc2ncnc(Oc3ccc(OC(=O)c4ccccc4)cc3)c2cc1OC [Example 772, 4-[(6,7-Dimethoxy-4-quinazolinyl)oxy]phenyl benzoate]",–,–,> 100,IC50 (c-kit; 50 ng/ml h-SCF): 550 nM; inhibition at 0.1 µM (PDGF-Ra; [1]): 13%
"CCN(CC)CCOC(=O)Nc1ccc(Oc2ccnc3cc(OC)c(OC)cc23)cc1 [Example 435, 2-(Diethylamino)ethyl N-{4-[(6,7-dimethoxy-4-quinolyl)oxy]phenyl}carbamate]",–,–,33,IC50 (c-kit; 50 ng/ml h-SCF): 445 nM
"COc1cc2nccc(Oc3ccc(NC(=O)OCCN4CCCCC4)c(C)c3C)c2cc1OC [Example 305, 2-Piperidinoethyl N-{4-[(6,7-dimethoxy-4-quinolyl)oxy]-2,3-dimethylphenyl}carbamate]",221,11,–,–
"COc1cc2nccc(Oc3ccc(NC(=S)NC(=O)Cc4ccccc4)cc3Cl)c2cc1OC [Example 1147, N-{3-Chloro-4-[(6,7-dimethoxy-4-quinolyl)oxy]phenyl}-N′-(2-phenylacetyl)thiourea]",–,–,10,IC50 (c-kit; h-SCF stimulation): 105 nM
"COc1cc2nccc(Oc3ccc(NC(=O)OC(C)c4cccc(C(F)(F)F)c4)c(C)c3C)c2cc1OC (stereo not drawn) [Example 88, 1-[3-(Trifluoromethyl)phenyl]ethyl N-{4-[(6,7-dimethoxy-4-quinolyl)oxy]-2,3-dimethylphenyl}carbamate]",–,19,–,inhibition at 1 µM (c-kit; figure in parentheses in −( )): 45%
"COc1cc2nccc(Oc3ccc(NC(=S)NC(=O)c4cc(C)ccc4C)cc3)c2cc1OC [Example 1004, N-{4-[(6,7-Dimethoxy-4-quinolyl)oxy]phenyl}-N′-(2,5-dimethylbenzoyl)thiourea]",–,–,10,IC50 (c-kit; h-SCF stimulation): 877 nM
"COc1ccc(OC)c(COC(=O)Nc2ccc(Oc3ncnc4cc(OC)c(OC)cc34)cc2)c1 [Example 70, 2,5-Dimethoxybenzyl N-{4-[(6,7-dimethoxy-4-quinazolinyl)oxy]phenyl}carbamate]",451,< 10,–,–
"COc1cc2ncnc(Oc3ccc(NC(=O)NC4CCN(Cc5ccccc5)CC4)c(Cl)c3)c2cc1OC [Example 637, N-(1-Benzyl-4-piperidyl)-N′-{2-chloro-4-[(6,7-dimethoxy-4-quinazolinyl)oxy]phenyl}urea]",–,–,52,IC50 (c-kit; 50 ng/ml h-SCF): 375 nM

Compound,IC50 (c-kit; h-SCF 50 ng/ml) [nM],IC50 (PDGF-Ra; Pharmacological Test Example 1) [nM],IC50 (PDGF-Ra) [nM],further results
"COc1cc2ncnc(Oc3ccc(NC(=O)NC4CCN(Cc5ccccc5Cl)C4)cc3)c2cc1OC (stereo not drawn) [Example 580, N-[1-(2-Chlorobenzyl)tetrahydro-1H-3-pyrrolyl]-N′-{4-[(6,7-dimethoxy-4-quinazolinyl)oxy]phenyl}urea]",–,–,14,IC50 (c-kit; 50 ng/ml h-SCF): 84 nM
"COc1cc2nccc(Oc3ccc(NC(=O)Oc4ccc(C(C)(C)C)cc4)c(C)c3C)c2cc1OC [Example 275, 4-(Tert-butyl)phenyl N-{4-[(6,7-dimethoxy-4-quinolyl)oxy]-2,3-dimethylphenyl}carbamate]",103,16,–,–
"COc1cc2nccc(Oc3ccc(NC(=O)OCC4CCCCCC4)cc3)c2cc1OC [Example 348, Cycloheptylmethyl N-{4-[(6,7-dimethoxy-4-quinolyl)oxy]phenyl}carbamate]",90,< 10,–,–
"CCCCCC(C)OC(=O)Nc1ccc(Oc2ccnc3cc(OC)c(OC)cc23)cc1 (stereo not drawn) [Example 411, 1-Methylhexyl N-{4-[(6,7-dimethoxy-4-quinolyl)oxy]phenyl}carbamate]",–,–,17,IC50 (c-kit; 50 ng/ml h-SCF): 43 nM
"COc1cc2nccc(Oc3ccc(NC(=S)NC(=O)c4ccccc4C)c(Cl)c3)c2cc1OC [Example 1101, N-{2-Chloro-4-[(6,7-dimethoxy-4-quinolyl)oxy]phenyl}-N′-(2-methylbenzoyl)thiourea]",–,–,> 100,inhibition at 1 µM (c-kit; figure in parentheses in −( )): 26%; inhibition at 0.1 µM (PDGF-Ra; figure in parentheses in >100( )): 37%
"COc1cc2nccc(Oc3ccc(NC(=O)OC(C)c4cccc(Br)c4)c(C)c3C)c2cc1OC (stereo not drawn) [Example 118, 1-(3-Bromophenyl)ethyl N-{4-[(6,7-dimethoxy-4-quinolyl)oxy]-2,3-dimethylphenyl}carbamate]",746,33,–,–
"COc1cc2nccc(Oc3cc(C)c(NC(=O)OCCN4CCCCC4)cc3C)c2cc1OC [Example 304, 2-Piperidinoethyl N-{4-[(6,7-dimethoxy-4-quinolyl)oxy]-2,5-dimethylphenyl}carbamate]",401,63,–,–
"COc1cc2nccc(Oc3ccc(NC(=O)NC4CCN(Cc5ccccc5)CC4)cc3F)c2cc1OC [Example 639, N-(1-Benzyl-4-piperidyl)-N′-{4-[(6,7-dimethoxy-4-quinolyl)oxy]-3-fluorophenyl}urea]",–,–,> 100,inhibition at 1 µM (c-kit; [2]): 12%; inhibition at 0.1 µM (PDGF-Ra; [1]): 29%
"CCCCC(CC)OC(=O)Nc1ccc(Oc2ccnc3cc(OC)c(OC)cc23)c(C)c1C (stereo not drawn) [Example 331, 1-Ethylpentyl N-{4-[(6,7-dimethoxy-4-quinolyl)oxy]-2,3-dimethylphenyl}carbamate]",377,< 10,–,–
"COc1cc2nccc(Oc3cc(C)c(NC(=O)Oc4ccc(C(C)(C)C)cc4)cc3C)c2cc1OC [Example 274, 4-(Tert-butyl)phenyl N-{4-[(6,7-dimethoxy-4-quinolyl)oxy]-2,5-dimethylphenyl}carbamate]",399,25,–,–
"COc1cc2nccc(Oc3cc(C)c(NC(=O)OCCc4cccc(C(F)(F)F)c4)cc3C)c2cc1OC [Example 84, 3-(Trifluoromethyl)phenethyl N-{4-[(6,7-dimethoxy-4-quinolyl)oxy]-2,5-dimethylphenyl}carbamate]",399,27,–,–
"COc1cc2ncnc(Oc3ccc(NC(=O)NCCN4CCCCC4)cc3)c2cc1OC [Example 676, N-{4-[(6,7-Dimethoxy-4-quinazolinyl)oxy]phenyl}-N′-(2-piperidinoethyl)urea]",–,–,26,IC50 (c-kit; 50 ng/ml h-SCF): 632 nM
"COc1cc2nccc(Oc3ccc(NC(=O)N[C@H]4CCN(Cc5ccccc5)C4)cc3)c2cc1OC [Example 565, N-[(3S)-1-Benzyltetrahydro-1H-3-pyrrolyl]-N′-{4-[(6,7-dimethoxy-4-quinolyl)oxy]phenyl}urea]",–,–,46,IC50 (c-kit; 50 ng/ml h-SCF): 170 nM
"COc1cc2nccc(Oc3ccc(NC(=S)NC(=O)c4ccc5c(c4)OCO5)cc3)c2cc1OC [Example 989, N-(1,3-Benzodioxol-5-ylcarbonyl)-N′-{4-[(6,7-dimethoxy-4-quinolyl)oxy]phenyl}thiourea]",–,–,14,IC50 (c-kit; h-SCF stimulation): 425 nM
"CCCC(C)C(=O)NC(=S)Nc1ccc(Oc2ccnc3cc(OC)c(OC)cc23)c(Cl)c1 (stereo not drawn) [Example 1200, N-{3-Chloro-4-[(6,7-dimethoxy-4-quinolyl)oxy]phenyl}-N′-(2-methylpentanoyl)thiourea]",–,–,25,IC50 (c-kit; h-SCF stimulation): 716 nM
